Test results as given in patent US20030083822A2, “SYSTEMS AND METHODS FOR […] INFORMATICS” (PsychoGenics, Inc., priority 2001, published 2003).

System: mice
Assay: Transition-matrix analysis of behavior of drug-treated mice, coded by human observers (Figure 13)
Assay type: in vivo
Settings: average matrix of drug treated mice normalized to control (vehicle) matrix; increase
Procedure: Testing drugs several times and comparing the results can address replication. Significance is illustrated in Figure 13, where exemplary data is shown from an experiment in which mice were treated with one of the indicated drugs ensuing behavior was recorded and later coded by human observers. In the analysis of transition matrices, the average matrix of the drug treated mice was combined with the average matrix of the control mice. The control data was treated as the "population" data as it was expected to have very large numbers from mice treated with same vehicle as more and more experiments that require such vehicle are conducted.
Referring again to Figure 13, the average transition matrix was transformed as a z-score matrix based on the mean and standard error of the control matrix. In doing so, every drug transition (fd,i) subtracted the corresponding control transition (fc,i) and divided by the standard error (sc,i), as in zd,i=((fd,i)-(fc,i))/(sc,i) was obtained. Although this is just one possible way to normalize the data (e.g., student t-scores can also be calculated), it has some intuitive appeal, as the z-scores can now be read as distance from the control in standard-deviation units. Thus, in Figure 13, the first cell of the matrix corresponding to chlordiazepoxide (CDP), can be read as "CDP increased the number of rear-rear transitions more than 30 fold". […]

CNC1=Nc2ccc(Cl)cc2C(c2ccccc2)=[N+]([O-])C1 [CDP, chlordiazepoxide]
number of rear-rear transitions (first cell of the z-score transition matrix): more than 30 fold
